Reference: US8846653B2, “Delta-tocotrienol treatment and prevention of pancreatic cancer” (University of South Florida, priority 2006, dated 2014)

Experiments:
MiaPaCa-2 cells = test: MTS assay of MiaPaCa2 cultures, single 50 μM dose; type: cell-based, human; conditions: MiaPaCa2, 50 μM
Protocol: MiaPaCa-2 cells were cultured in complete DMEM media containing 10% fetal bovine serum (FBS) and 1% penicillin-streptomycin, and 1% L-glutamine. BxPc-3 pancreatic cancer cells were cultured in complete RPMI media containing 10% fetal bovine serum (FBS), and 1% penicillin-streptomycin, 1% HEPES buffer, 1% sodium pyruvate and 1% L-glutamine HPDE6-C7 cells were cultured in serum-free keratinocyte SFM media. All cells were maintained at 37° C. in a humidified incubator with 5% CO2. The cells were treated with a single 50 μM dose of vehicle (vehicle only, may be a solvent), T3 alpha (alpha tocotrienol), T3 beta (beta tocotrienol), T3 gamma (gamma tocotrienol), T3 delta (delta tocotrienol), T alpha (alpha tocopherol), T beta (beta tocopherol), TS (tocopherol succinate), GG (geranylgeraniol), SA (succinic acid). A control (no treatment) culture was grown alongside the treatments for comparison. […]

[1] = system: human pancreatic ductal epithelial cells transformed with oncogenic K-ras (HPDE-K-ras); test: Proliferation (MTT) of K-ras transformed ductal epithelial cells; type: cell-based; conditions: 72 hours
Protocol: FIGS. 36A and B are graphs showing the effect of tocotrienols on Human Pancreatic Ductal Epithelial Kras Transformed cells (MTT). (A) Tocotrienols (10-100 μM) had no effect on the proliferation of normal immortalized human pancreatic ductal epithelial cells at 72 hours. […] Points, means; bars, SE (n=3). *p<0.001 vs. vehicle. # p<0.02 vs. vehicle
The Ras effector pathways Raf-MEK-ERK and PI3 kinase-AKT are important for cell proliferation and survival, respectively. Pancreatic cancer cell lines (MIA PaCa2, SW1990, BXPC3) and HPDE 6C7 cells were treated with 8-tocotrienol (20 μM) and cell lysates were collected and prepared at progressive time intervals as described above. Proteins from lysates were run by SDS PAGE and immunoblotted with the following antibodies: Ras, p-cRaf (ser 338), p-MEK1/2, MEK1/2, pERK 44/42, ERK 44/42 (Cell Signaling) and c-Raf (BD Transduction Laboratories). […] The MIA PaCa2 and SW1990 cells were then tested for AKT inhibition. The cells were treated with δ-tocotrienol (20 μM) for 24 and 48 hours and cell lysates were run by SDS-PAGE and immunoblotted for p-AKT and AKT (Cell Signaling). […] Taken together, the inhibition of downstream effectors of oncogenic Ras signaling by δ-tocotrienol without an effect on Ras protein levels may indicate a negative regulatory role of 8-tocotrienol on the function of oncogenic Ras. The pancreatic ductal epithelial cell proliferative inhibition by δ-tocotrienol was tested to see if it occurs through blocking aberrant signal transduction cascades. Immortalized human pancreatic ductal epithelial cells (HPDE) and human pancreatic ductal epithelial cells that were transformed by stable transfection of a mutated K-ras oncogene (HPDE-K-ras) were used to test the. effect of tocotrienols on the proliferation of HPDE and HPDE-K-ras.

[2] = system: AsPc1 pancreatic cancer cells; test: Effect of tocotrienols on pancreatic cancer proliferation (MTT), 72 hours; type: cell-based, human; conditions: AsPc1, 40 to 100 μM, vs vehicle
Text: (§1) FIGS. 11A and B are graphs showing the effect of tocotrienols on pancreatic cancer proliferation (MTT). […] Points, means; bars, SE (n=3).

[3] = system: MiaPaCa2 pancreatic cancer cells; test: as above; type: cell-based, human; conditions: MiaPaCa2, 40 to 100 μM, vs vehicle
Text: as §1

[4] = system: MiaPaCa2 pancreatic cancer cells; test: Malignant transformation (Soft Agar) colony formation; type: cell-based, human; conditions: MiaPaCa2, 50 μM, vs vehicle
Protocol: FIG. 20 is a graph showing the effect of tocotrienols on pancreatic cancer malignant transformation (Soft Agar). […] Bars, SE (n=3). *p<0.001 vs. vehicle. **p<0.02 vs. vehicle. ***p<0.05 vs. vehicle. T=tocopherol, T3=tocotrienol.
MiaPaCa2 cells (3×10^3) were cultured as described in the Examples above, in 96-well plates and treated with 50 μM of different tocopherol or tocotrienol.

[5] = system: MiaPaCa2 pancreatic cancer cells; test: Cell death by trypan blue assay, 72 hours; type: cell-based, human; conditions: MiaPaCa2, 50 μM
Protocol: (§2) FIGS. 38A and B are graphs showing the effect of tocotrienols on pancreatic cancer survival (Trypan Blue and Cell death ELISA). […] T3=tocotrienol, T=tocopherol, vit E=vitamin E succinate, gem=gemcitabine, 5-FU=fluorouracil.
(§3) MIA PaCa2 cells (3×10^3) were plated in 96 well plates and treated the following day with different compositions of tocoperhol, tocotrienol, gemcitabine, or fluorouracil. The cells were harvested 72 hours later and tested using trypan blue assay and cell death ELISA.

[6] = system: MiaPaCa2 pancreatic cancer cells; test: Apoptosis by cell death ELISA, 72 hours; type: cell-based, human; conditions: MiaPaCa2, 50 μM
Protocol: as §2, §3

| Compound | rel amt (relative value set to the control) (MiaPaCa-2 cells; 24 hours) | MTS assay result, run 1 (MiaPaCa-2 cells; 24 hours) | MTS assay result, run 2 (MiaPaCa-2 cells; 24 hours) | MTS assay result, run 3 (MiaPaCa-2 cells; 24 hours) | MTS assay result, run 4 (MiaPaCa-2 cells; 24 hours) | MTS assay result, run 5 (MiaPaCa-2 cells; 24 hours) | MTS assay result, run 6 (MiaPaCa-2 cells; 24 hours) | MTS assay result, run 7 (MiaPaCa-2 cells; 24 hours) | MTS assay result, run 8 (MiaPaCa-2 cells; 24 hours) | MTS assay result, run 9 (MiaPaCa-2 cells; 24 hours) | rel amt (relative value set to the control) (MiaPaCa-2 cells; 48 hours) | MTS assay result, run 1 (MiaPaCa-2 cells; 48 hours) | MTS assay result, run 2 (MiaPaCa-2 cells; 48 hours) | MTS assay result, run 3 (MiaPaCa-2 cells; 48 hours) | MTS assay result, run 4 (MiaPaCa-2 cells; 48 hours) | MTS assay result, run 5 (MiaPaCa-2 cells; 48 hours) | MTS assay result, run 6 (MiaPaCa-2 cells; 48 hours) | MTS assay result, run 7 (MiaPaCa-2 cells; 48 hours) | MTS assay result, run 8 (MiaPaCa-2 cells; 48 hours) | MTS assay result, run 9 (MiaPaCa-2 cells; 48 hours) | further results |
| --- | --- | --- | --- | --- | --- | --- | --- | --- | --- | --- | --- | --- | --- | --- | --- | --- | --- | --- | --- | --- | --- |
| CC(C)=CCC/C(C)=C/CC/C(C)=C/CC[C@]1(C)CCc2cc(O)c(C)c(C)c2O1 [T3 gamma, gamma tocotrienol] | 66 | 0.133 | 0.135 | 0.141 | 0.127 | 0.142 | 0.166 | 0.171 | 0.162 | 0.147 | 37 | 0.095 | 0.116 | 0.111 | 0.128 | 0.159 | 0.147 | 0.167 | 0.152 | 0.134 | rel amt (relative value set to the control) (MiaPaCa-2 cells; 72 hours): 177; MTS assay result, run 1 (MiaPaCa-2 cells; 72 hours): 0.776; MTS assay result, run 2 (MiaPaCa-2 cells; 72 hours): 0.744; MTS assay result, run 3 (MiaPaCa-2 cells; 72 hours): 0.876; MTS assay result, run 4 (MiaPaCa-2 cells; 72 hours): 0.734; MTS assay result, run 5 (MiaPaCa-2 cells; 72 hours): 0.812; MTS assay result, run 6 (MiaPaCa-2 cells; 72 hours): 0.817; MTS assay result, run 7 (MiaPaCa-2 cells; 72 hours): 0.773; MTS assay result, run 8 (MiaPaCa-2 cells; 72 hours): 0.759; MTS assay result, run 9 (MiaPaCa-2 cells; 72 hours): 0.786; proliferation (MTT) [1]: significantly inhibited |
| Cc1c(C)c2c(c(C)c1O)CC[C@@](C)(CCC[C@H](C)CCC[C@H](C)CCCC(C)C)O2 [T alpha, alpha tocopherol] | 111 | 0.249 | 0.25 | 0.253 | 0.207 | 0.253 | 0.238 | 0.27 | 0.254 | 0.247 | 86 | 0.308 | 0.313 | 0.342 | 0.269 | 0.352 | 0.277 | 0.305 | 0.339 | 0.313 | rel amt (relative value set to the control) (MiaPaCa-2 cells; 72 hours): 103; MTS assay result, run 1 (MiaPaCa-2 cells; 72 hours): 0.523; MTS assay result, run 2 (MiaPaCa-2 cells; 72 hours): 0.478; MTS assay result, run 3 (MiaPaCa-2 cells; 72 hours): 0.464; MTS assay result, run 4 (MiaPaCa-2 cells; 72 hours): 0.453; MTS assay result, run 5 (MiaPaCa-2 cells; 72 hours): 0.443; MTS assay result, run 6 (MiaPaCa-2 cells; 72 hours): 0.456; MTS assay result, run 7 (MiaPaCa-2 cells; 72 hours): 0.383; MTS assay result, run 8 (MiaPaCa-2 cells; 72 hours): 0.451; MTS assay result, run 9 (MiaPaCa-2 cells; 72 hours): 0.456; proliferation (MTT) [2]: no effect; proliferation (MTT) [3]: no effect; malignant transformation (Soft Agar) [4]: no effect; cell death (Trypan Blue) [5]: no effect; apoptosis (Cell death ELISA) [6]: no effect |
| alpha tocotrienol [T3 alpha] | 116 | 0.274 | 0.296 | 0.293 | 0.216 | 0.245 | 0.258 | 0.243 | 0.239 | 0.258 | 93 | 0.336 | 0.325 | 0.343 | 0.327 | 0.39 | 0.376 | 0.322 | 0.286 | 0.338 | rel amt (relative value set to the control) (MiaPaCa-2 cells; 72 hours): 61; MTS assay result, run 1 (MiaPaCa-2 cells; 72 hours): 0.279; MTS assay result, run 2 (MiaPaCa-2 cells; 72 hours): 0.282; MTS assay result, run 3 (MiaPaCa-2 cells; 72 hours): 0.294; MTS assay result, run 4 (MiaPaCa-2 cells; 72 hours): 0.238; MTS assay result, run 5 (MiaPaCa-2 cells; 72 hours): 0.302; MTS assay result, run 6 (MiaPaCa-2 cells; 72 hours): 0.279; MTS assay result, run 7 (MiaPaCa-2 cells; 72 hours): 0.254; MTS assay result, run 8 (MiaPaCa-2 cells; 72 hours): 0.254; MTS assay result, run 9 (MiaPaCa-2 cells; 72 hours): 0.273; proliferation (MTT) [2]: no effect; proliferation (MTT) [3]: no effect; malignant transformation (Soft Agar) [4]: no effect; proliferation (MTT) [1]: no effect; cell death (Trypan Blue) [5]: no effect; apoptosis (Cell death ELISA) [6]: no effect |
